Assay results reported in patent US20230225990A1, “DIMETHYL SULFONE FOR TREATMENT OF CHRONICALLY HEAT STRESSED POULTRY” (Evonik Operations GmbH, priority 2020, published 2023).
Marks after values point to notes of the source that are not given here.

Columns and labels:
[1] = tested on: chronically heat stressed poultry; experiment: Litter moisture; type: in vivo; settings: control diet+0.05 wt.-% DMS; d-42
Source text: For this purpose, two treatments (T1: control diet, and T2: control diet+0.05 wt.-% DMS) were done with 13 replicate pens each and 10 birds per pen. Collection of litter was done at days 28 and 42 to determine litter moisture. The sampling of the litter was done in five different points in each pen (each corner and the centre of each pen) and then homogenized to compose the representative sample of the pen. […] Calculating was done according to the formula: […]

[2] = tested on: male broilers subjected to chronic cyclic heat stress; experiment: Animal performance (BW, ADG, ADFI, F:G, mortality, EPEF) with chronic cyclic heat stress in the finisher phase; type: in vivo, broiler chickens (Ross 308); settings: for FIhs (percentage of total feed intake consumed during hours of heat stress): 6 h heat stress per day, d-24 till d-39; for F:G corrected: total d0-d39, corrected to final body weight of 3050 g
Source text: The experimental design consisted of one control group (T1) and two other groups receiving the control diet supplemented with increasing levels of DMS (dimethyl sulfone), specifically 0.1% DMS (T2) and 0.2% DMS (T3). Treatments were replicated in 12 pens each in a completely randomized block design. Block refers to physical allocation in the experimental facility. All the animal trial was realized in compliance with the Ethics Committee of Faculty of Veterinary Medicine (Ghent University, EC2018-71).
The experiment was conducted at the experimental facilities of the Department of Animal Sciences and Aquatic Ecology of Ghent University, located in Melle, Belgium. A total of 792 male broiler chickens (Ross 308, Aviagen Group) were provided by Vervaeke-Belavi hatchery (Tielt, Belgium). Larger treatment effects are expected with males, as they are more sensitive to heat stress (HS) (Cahaner and Leenstra, 1992). The experiment consisted in three rearing phases: starter (from d-0 to d-10), grower (from d-10 to d-21) and finisher (from d-21 to d-39). The one-day old chicks were weighted and equally spread among the pens according to their body weight (BW). Pens were randomly allocated to the treatment groups. The initial average animal BW was 41.3±0.31 g at the beginning of the experiment. The newly selected chicks were housed in a single climate-controlled room, which contained 36 pens of 22 animals each. […] The room was equipped with liner drinkers (two nipples per pen), and each pen had one tube-type metallic feeder. Temperature in starter and grower phase was set to decrease linearly from 34° C., at d-0 until a basal temperature of 22° C., at d-24. The light of the room was turned on 23 h in period d-0 to d-7, and then turned on at 4:00 and switched off at 22:00 during the rest of the experiment (18L:6D).
The finisher period started at d-21, and the chronic cyclic heat stress (HS) protocol was applied from d-24 until d-39. Starting from d-24, the temperature was increased from 22° C. to 34° C. for 6 hours per day (from 9:00 to 15:00) with relative air humidity (RH) between 52 and 58%. From 8:00 to 9:00, the temperature was increased from 22° C. to 34° C., and from 15:00 to 16:00, the temperature was decreased from 34° C. to 22° C. The rest of the day the temperature was 22° C. The room was equipped with heaters with thermostats, and air circulators to enable the desired temperature and RH to be maintained, providing sufficient ventilation and air conditions. RH was adjusted with manual spraying of water on stable walls, periodically. The temperature and the RH were recorded at 10-min intervals with a dry bulb thermo-hygrometer (Escort RH iLog, Escort Verification Technologies Inc., Buchanan, United States).
Wheat and soybean meal-based feeds were formulated to meet the nutrient requirements of broiler chickens, according to Ross308 recommendations or slightly lower to avoid excessive mortality in the finisher phase. […] The final formulation was approved by the commissioner. The test substance dimethyl sulfone was added on top at 0.1 and 0.2% in T2 and T3 in all rearing phases, respectively. Diets were processed by Research Dietary Services (RDS, Wijk bij Duurstede, The Netherlands) and delivered to Ghent University. All the diets were provided as pellets during all rearing phases. The chickens were fed ad libitum and had free access to water during the whole experiment.
For all performance indices, the pen is the experimental unit. Total feed intake (FI) was recorded for each rearing period. In addition, FI during HS period was recorded every day, weighing the feeders before (at 8:00) and after (at 16:00) HS every day. That allows the calculation of the relative FI during period with HS relative to the total FI for each day during HS (d-24 to d-39). The total body weight (BW) of each pen was recorded at d-0, d-10, d-21 and d-39, and divided by the number of chickens in the pen at that day to have the average BW for each pen. […]

[3] = 0.1% DMS in diet (T2), d-24 to d-39, excluding pen 24
[4] = 0.1% DMS in diet (T2), finisher d21-d39, heat stress d-24 till d-39
[5] = 0.1% DMS in diet (T2), grower d10-d21
[6] = 0.1% DMS in diet (T2), starter d0-d10
[7] = 0.1% DMS in diet (T2), total d0-d39
[8] = 0.2% DMS in diet (T3), d-24 to d-39, excluding pen 24
[9] = 0.2% DMS in diet (T3), finisher d21-d39, heat stress d-24 till d-39
[10] = 0.2% DMS in diet (T3), grower d10-d21
[11] = 0.2% DMS in diet (T3), starter d0-d10
[12] = 0.2% DMS in diet (T3), total d0-d39

Compound: CS(C)(=O)=O [DMS, dimethyl sulfone]
- Moisture content in the litter [1]: clear reduction
- FIhs (percentage of total feed intake consumed during hours of heat stress) ([2]; 0.1% DMS in diet (T2)): 27.9%
- Cases of mortality [2, 3]: 10
- Cases of mortality+culling [2, 3]: 12
- Cases of mortality+culling ([2]; 0.1% DMS in diet (T2), d-24 to d-39, pen 24 included): 17
- ADFI [2, 4]: 179 g/day
- ADG [2, 4]: 106 g/day
- F:G [2, 4]: 1.71
- Final BW [2, 4]: 3100 g
- Mortality [2, 4]: 4.7%
- Mortality + culling [2, 4]: 6.0%
- ADFI [2, 5]: 103 g/day
- ADG [2, 5]: 75.5^a g/d
- ADG higher as compared to control [2, 5]: 2.6%
- F:G [2, 5]: 1.36^b
- F:G reduced as compared to control [2, 5]: 6 points
- Final BW [2, 5]: 1189 g
- Mortality [2, 5]: 1.1%
- Mortality + culling [2, 5]: 1.1%
- ADFI [2, 6]: 32.5 g/day
- ADG [2, 6]: 31.7 g/day
- F:G [2, 6]: 1.03
- Final BW [2, 6]: 359 g
- Mortality [2, 6]: 0.0%
- Mortality + culling [2, 6]: 0.0%
- ADFI [2, 7]: 116 g/day
- ADG [2, 7]: 78.4 g/day
- EPEF (European production efficiency factor) [2, 7]: 488
- F:G [2, 7]: 1.53
- Mortality [2, 7]: 5.9%
- Mortality + culling [2, 7]: 7.3%
- F:G corrected ([2]; 0.1% DMS in diet (T2)): 1.54
- FIhs (percentage of total feed intake consumed during hours of heat stress) ([2]; 0.2% DMS in diet (T3)): 27.9%
- Cases of mortality [2, 8]: 8
- Cases of mortality+culling [2, 8]: 8
- Cases of mortality+culling ([2]; 0.2% DMS in diet (T3), d-24 to d-39, pen 24 included): 8
- ADFI [2, 9]: 178 g/day
- ADG [2, 9]: 104 g/day
- F:G [2, 9]: 1.72
- Final BW [2, 9]: 3066 g
- Mortality [2, 9]: 3.1%
- Mortality + culling [2, 9]: 3.1%
- ADFI [2, 10]: 102 g/day
- ADG [2, 10]: 76.1^a g/d
- ADG higher as compared to control [2, 10]: 3.4%
- F:G [2, 10]: 1.35^b
- F:G reduced as compared to control [2, 10]: 7 points
- Final BW [2, 10]: 1194 g
- Mortality [2, 10]: 0.4%
- Mortality + culling [2, 10]: 0.8%
- ADFI [2, 11]: 32.3 g/day
- ADG [2, 11]: 31.6 g/day
- F:G [2, 11]: 1.03
- Final BW [2, 11]: 357 g
- Mortality [2, 11]: 0.8%
- Mortality + culling [2, 11]: 0.8%
- ADFI [2, 12]: 117 g/day
- ADG [2, 12]: 77.6 g/day
- EPEF (European production efficiency factor) [2, 12]: 491
- F:G [2, 12]: 1.54
- Mortality [2, 12]: 4.2%
- Mortality + culling [2, 12]: 4.5%
- F:G corrected ([2]; 0.2% DMS in diet (T3)): 1.54
